Results reported in patent US6914045B2, “Glycopeptide antibiotics” (Wyeth Holdings Corporation, priority 2001, dated 2005).
≈ marks a conversion by molar mass, not a printed value.

Key:
Assay in all cases: in vitro antibacterial evaluation, MIC by broth dilution
Type in all cases: cell-based
Enterococcus sp. = details: broth dilution, 18 hours at 35° C.
In short: (§1)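 Inoculum 5×10^5 CFU/mL; concentrations 64 to 0.06 μg/mL; MIC defined as lowest inhibitory level. Conducted by broth dilution under NCCLS guidelines.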

Staphylococcus sp. = details: broth dilution, 18 hours at 35° C.
In short: as §1

Streptococcus sp. = details: broth dilution, 18 hours at 35° C.
In short: as §1

Escherichia coli = details: 18 hours at 35° C.

CC(c1ccccc1)C1NC(=O)CNC(=O)C(CO)NC(=O)C(CC2CNC(=N)N2C2OC(CO)C(O)C(O)C2O)NC(=O)C(CC2CNC(=N)N2)NC(=O)C(Cc2ccc(OC3OC(CO)C(OC4OC(CO)C(OCc5ccc(OCc6ccccc6)cc5)C(O)C4O)C(O)C3O)cc2)NC1=O (stereo not shown) [Example 246a]
MIC Enterococcus avium (GC 4558) (Enterococcus sp.): 2 µg/mL (≈ 1.37 µM)
MIC Enterococcus faecalis (ATCC 29212) (Enterococcus sp.): 4 µg/mL (≈ 2.74 µM)
MIC Enterococcus faecalis (GC 2242) (Enterococcus sp.): 4 µg/mL (≈ 2.74 µM)
MIC Enterococcus faecalis (GC 2691) (Enterococcus sp.): 8 µg/mL (≈ 5.48 µM)
MIC Enterococcus faecalis (GC 3059) (Enterococcus sp.): 4 µg/mL (≈ 2.74 µM)
MIC Enterococcus faecalis (GC 4552) (Enterococcus sp.): 4 µg/mL (≈ 2.74 µM)
MIC Enterococcus faecalis (GC 4553) (Enterococcus sp.): 2 µg/mL (≈ 1.37 µM)
MIC Enterococcus faecalis (GC 4554) (Enterococcus sp.): 4 µg/mL (≈ 2.74 µM)
MIC Enterococcus faecalis (GC 6189) (Enterococcus sp.): 4 µg/mL (≈ 2.74 µM)
MIC Enterococcus faecium (GC 2243) (Enterococcus sp.): 4 µg/mL (≈ 2.74 µM)
MIC Enterococcus faecium (GC 4556) (Enterococcus sp.): 4 µg/mL (≈ 2.74 µM)
MIC Enterococcus faecium (GC 4557) (Enterococcus sp.): 2 µg/mL (≈ 1.37 µM)
MIC Enterococcus faecalis (ATCC 29212) (Enterococcus sp.; strain ATCC 29212): 4 µg/mL (≈ 2.74 µM)
MIC Enterococcus faecium (GC 2243) (Enterococcus sp.; strain GC 2243): 4 µg/mL (≈ 2.74 µM)
MIC Enterococcus faecalis (GC 4552) (Enterococcus sp.; strain GC 4552): 4 µg/mL (≈ 2.74 µM)
MIC Enterococcus faecalis (GC 4553) (Enterococcus sp.; strain GC 4553): 2 µg/mL (≈ 1.37 µM)
MIC Enterococcus faecalis (GC 4554) (Enterococcus sp.; strain GC 4554): 4 µg/mL (≈ 2.74 µM)
MIC Enterococcus faecium (GC 4556) (Enterococcus sp.; strain GC 4556): 4 µg/mL (≈ 2.74 µM)
MIC Enterococcus faecium (GC 4557) (Enterococcus sp.; strain GC 4557): 2 µg/mL (≈ 1.37 µM)
MIC Enterococcus avium (GC 4558) (Enterococcus sp.; strain GC 4558): 2 µg/mL (≈ 1.37 µM)
MIC Enterococcus faecalis (GC 6189) (Enterococcus sp.; strain GC 6189): 4 µg/mL (≈ 2.74 µM)
MIC Enterococcus faecalis (GC 2242) (Enterococcus sp.; inoculum 5×10^5 CFU/mL, strain GC 2242): 4 µg/mL (≈ 2.74 µM)
MIC Enterococcus faecalis (GC 2691) (Enterococcus sp.; inoculum 5×10^5 CFU/mL, strain GC 2691): 8 µg/mL (≈ 5.48 µM)
MIC Enterococcus faecalis (GC 3059) (Enterococcus sp.; inoculum 5×10^5 CFU/mL, strain GC 3059): 4 µg/mL (≈ 2.74 µM)
MIC Coagulase Negative Staphylococcus (GC 4547) (Staphylococcus sp.): 1 µg/mL (≈ 0.685 µM)
MIC Coagulase Negative Staphylococcus (GC 4548) (Staphylococcus sp.): 1 µg/mL (≈ 0.685 µM)
MIC Coagulase Negative Staphylococcus (GC 4549) (Staphylococcus sp.): 1 µg/mL (≈ 0.685 µM)
MIC Coagulase Negative Staphylococcus (GC 4551) (Staphylococcus sp.): 2 µg/mL (≈ 1.37 µM)
MIC Coagulase Negative Staphylococcus (GC 6257) (Staphylococcus sp.): 2 µg/mL (≈ 1.37 µM)
MIC Staphylococcus aureus (ATCC 29213) (Staphylococcus sp.): 2 µg/mL (≈ 1.37 µM)
MIC Staphylococcus aureus (GC 1131) (Staphylococcus sp.): 4 µg/mL (≈ 2.74 µM)
MIC Staphylococcus aureus (GC 3051) (Staphylococcus sp.): 1 µg/mL (≈ 0.685 µM)
MIC Staphylococcus aureus (GC 3053) (Staphylococcus sp.): 2 µg/mL (≈ 1.37 µM)
MIC Staphylococcus aureus (GC 4541) (Staphylococcus sp.): 1 µg/mL (≈ 0.685 µM)
MIC Staphylococcus aureus (GC 4542) (Staphylococcus sp.): 1 µg/mL (≈ 0.685 µM)
MIC Staphylococcus aureus (GC 4544) (Staphylococcus sp.): 2 µg/mL (≈ 1.37 µM)
MIC Staphylococcus aureus (GC 4545) (Staphylococcus sp.): 2 µg/mL (≈ 1.37 µM)
MIC Staphylococcus aureus-SMITH (GC 4543) (Staphylococcus sp.): 1 µg/mL (≈ 0.685 µM)
MIC Staphylococcus haemolyticus (GC 4546) (Staphylococcus sp.): 1 µg/mL (≈ 0.685 µM)
MIC Staphylococcus aureus (ATCC 29213) (Staphylococcus sp.; strain ATCC 29213): 2 µg/mL (≈ 1.37 µM)
MIC Staphylococcus aureus (GC 1131) (Staphylococcus sp.; strain GC 1131): 4 µg/mL (≈ 2.74 µM)
MIC Staphylococcus aureus (GC 3051) (Staphylococcus sp.; strain GC 3051): 1 µg/mL (≈ 0.685 µM)
MIC Staphylococcus aureus (GC 3053) (Staphylococcus sp.; strain GC 3053): 2 µg/mL (≈ 1.37 µM)
MIC Staphylococcus aureus (GC 4541) (Staphylococcus sp.; strain GC 4541): 1 µg/mL (≈ 0.685 µM)
MIC Staphylococcus aureus (GC 4542) (Staphylococcus sp.; strain GC 4542): 1 µg/mL (≈ 0.685 µM)
MIC Staphylococcus aureus-SMITH (GC 4543) (Staphylococcus sp.; strain GC 4543): 1 µg/mL (≈ 0.685 µM)
MIC Staphylococcus aureus (GC 4544) (Staphylococcus sp.; strain GC 4544): 2 µg/mL (≈ 1.37 µM)
MIC Staphylococcus aureus (GC 4545) (Staphylococcus sp.; strain GC 4545): 2 µg/mL (≈ 1.37 µM)
MIC Staphylococcus haemolyticus (GC 4546) (Staphylococcus sp.; strain GC 4546): 1 µg/mL (≈ 0.685 µM)
MIC Coagulase Negative Staphylococcus (GC 4547) (Staphylococcus sp.; strain GC 4547): 1 µg/mL (≈ 0.685 µM)
MIC Coagulase Negative Staphylococcus (GC 4548) (Staphylococcus sp.; strain GC 4548): 1 µg/mL (≈ 0.685 µM)
MIC Coagulase Negative Staphylococcus (GC 4549) (Staphylococcus sp.; strain GC 4549): 1 µg/mL (≈ 0.685 µM)
MIC Coagulase Negative Staphylococcus (GC 4551) (Staphylococcus sp.; strain GC 4551): 2 µg/mL (≈ 1.37 µM)
MIC Coagulase Negative Staphylococcus (GC 6257) (Staphylococcus sp.; strain GC 6257): 2 µg/mL (≈ 1.37 µM)
MIC Streptococcus agalactiae (GC 4564) (Streptococcus sp.): 0.5 µg/mL (≈ 0.343 µM)
MIC Streptococcus pneumoniae (ATCC 6301) (Streptococcus sp.): 0.25 µg/mL (≈ 0.171 µM)
MIC Streptococcus pneumoniae (GC 1894) (Streptococcus sp.): <0.12 µg/mL
MIC Streptococcus pneumoniae (GC 4565) (Streptococcus sp.): 0.25 µg/mL (≈ 0.171 µM)
MIC Streptococcus pyogenes (GC 4563) (Streptococcus sp.): 0.5 µg/mL (≈ 0.343 µM)
MIC Streptococcus pneumoniae (ATCC 6301) (Streptococcus sp.; inoculum 5×10^5 CFU/mL, strain ATCC 6301): 0.25 µg/mL (≈ 0.171 µM)
MIC Streptococcus pneumoniae (GC 1894) (Streptococcus sp.; inoculum 5×10^5 CFU/mL, strain GC 1894): <0.12 µg/mL
MIC Streptococcus pyogenes (GC 4563) (Streptococcus sp.; inoculum 5×10^5 CFU/mL, strain GC 4563): 0.5 µg/mL (≈ 0.343 µM)
MIC Streptococcus agalactiae (GC 4564) (Streptococcus sp.; inoculum 5×10^5 CFU/mL, strain GC 4564): 0.5 µg/mL (≈ 0.343 µM)
MIC Streptococcus pneumoniae (GC 4565) (Streptococcus sp.; inoculum 5×10^5 CFU/mL, strain GC 4565): 0.25 µg/mL (≈ 0.171 µM)
MIC Escherichia coli (ATCC 25922) (Escherichia coli): 16 µg/mL (≈ 11 µM)
MIC Escherichia coli (GC 4559) (Escherichia coli): 16 µg/mL (≈ 11 µM)
MIC Escherichia coli (GC 4560) (Escherichia coli): 2 µg/mL (≈ 1.37 µM)
